Reference: US8389012B2, “Gellan-gum nanoparticles and methods of making and using the same” (The Corporation of Mercer University, priority 2008, dated 2013)
Where two headings read alike, the source gives them in different places.

How the values were obtained:
DU-145 cells = assay: MTT cytotoxicity assay, DU-145; format: cell-based, human; details: then 72 h; for viability at 25 µg/mL: Homo sapiens, DU-145, DU-145, 25 μg/ml Ptx, read-out: cell viability
Method: (§1) To investigate the cytotoxicity of Ptx-GGbPEG-Apt nanoparticles on human prostate cancer cells, mitochondrial dehydrogenase assay (MTT) was employed. PC-3 or DU-145 cells (5×10^3) were seeded in 96-well plates containing 100 μl of RPMI medium 1640 (American Type Culture Collection), supplemented with 100 units/ml aqueous penicillin G, 100 μg/ml streptomycin, and 10% FBS. Cells were then allowed to adhere overnight prior to treatment. On the day of experiment, cells were washed twice with PBS and then exposed to similar concentrations (25 μg/ml) of Ptx in either the encapsulated or free formulations. The control cells received 1% (v/v) DMSO or drug free GGbPEG nanoparticles (1.0 μg/ml). Cells were incubated with drug formulations for different time points (10, 30, 120 mins) followed by washing with PBS and replacing treatment medium with fresh medium in the plates. Cells were further incubated for 72 h. At the end of treatment period, medium was removed and replaced with 100 μl of complete culture medium and 10 μl of MTT (5 mg/ml) in each well and the plates were incubated at 37° C. in a humidified, 5% CO2 atmosphere for 3 h. The resulting formazan crystals were solubilized with 100 μl of the stop solution (0.1N HCl in isopropanol). The optical densities (OD) of the resulting solutions were determined at 490 nm using a microplate reader (Packard Instruments, Meriden, Conn.) and cell viability (%) was calculated by comparing the OD of the treatment group relative to that of the untreated control group (100%).

PC-3 tumors [1] = assay: Histological analysis of excised tumor (H & E); format: in vivo, mice; details: day 60 post treatment
Method: Selected tumors from each group were harvested and fixed in 10% neutral buffered formalin. Tumors were paraffin embedded, sectioned, placed on polylysine slides, and stained with Hematoxylin & Eosin (H & E) to visualize morphological changes in the tumors in both the treated and control groups. Images were recorded using a light microscope equipped with camera.

PC-3 cells = assay: MTT cytotoxicity assay, PC-3; format: cell-based, human; details: PC-3, 10, 30, 120 minutes treatment, then 72 h
Method: as §1, with “At the end of treatment period, medium was removed and replaced with 100 μl of complete culture medium and 10 μl of MTT (5 mg/ml) in each well and the plates were incubated at 37° C. in a humidified, 5% CO2 atmosphere for 3 h. The resulting formazan crystals were solubilized with 100 μl of the stop solution (0.1N HCl in isopropanol).” left out

PC-3 tumors [2] = assay: In vivo efficacy in athymic nude mice bearing human xenograft prostate cancer tumor; details: single i.v. injection, 60 days
Method: For in vivo efficacy study, athymic nude mice bearing human prostate tumor (−150 mm^3) were divided into five groups of four mice, minimizing, weight and tumor size differences. […] Human xenograft prostate cancer tumors were induced in 6-week old athymic nude mice (NCI Frederick, Md., USA). Mice were injected subcutaneously in the right flank with 2.5×10^6 PC-3 cells suspended in a 1:1 mixture of serum-free media and matrigel (BD Biosciences, Franklin Lakes, N.J., USA). Prior to use in tumor induction, PC-3 cells were cultured in RPMI-1640 medium supplemented with 10% fetal bovine serum, 100 units/ml penicillin G, and 100 mg/ml streptomycin. Tumor targeting studies were carried out after the mice developed ˜150 mm^3 tumors. […] After dosing, the mice were monitored for weight and implanted tumor size daily for sixty days. The length and width of the tumors were measured by digital calipers and tumor volume was calculated by the following formula: (width^2×length)/2 [17]. […]
To evaluate the in vivo efficacy of Ptx-GGbPEG-Apt copolymeric nanoparticles, PC-3 cells were injected subcutaneously in the flanks of athymic nude mice as described above. […] The tumor size and body weight were then monitored for 60 days.

[3] = i.v.; cited from earlier work

Q: Which cytotoxic effect (DU-145 cells; DU-145, 10, 30, 120 minutes treatment) does the source give for `CC(=O)O[C@H]1C(=O)[C@@]2(C)[C@H]([C@H](OC(=O)c3ccccc3)[C@]3(O)C[C@H](OC(=O)[C@H](O)[C@@H](NC(=O)c4ccccc4)c4ccccc4)C(C)=C1C3(C)C)[C@]1(OC(C)=O)CO[C@@H]1C[C@@H]2O` [Ptx, Paclitaxel] here?
A: The cytotoxic effect was “time-dependent cytotoxicity”.

Q: And the viability at 25 µg/mL (DU-145 cells; treated 30 minutes)?
A: Its viability at 25 µg/mL is 50%.

Q: And the viability at 25 µg/mL (DU-145 cells; treated 120 min)?
A: Its viability at 25 µg/mL is 35%.

Q: What about the “histological examination of tumors by H & E staining” value (PC-3 tumors [1]) of the same molecule?
A: Its value is “extensively necrotic”.

Q: What about the cytotoxic effect (PC-3 cells) of the same molecule?
A: The cytotoxic effect was “time-dependent cytotoxicity”.

Q: And the “efficacy in tumor reduction (comparison of groups)” value (PC-3 tumors [2])?
A: Its value is “does not show any significant long-term efficacy”.

Q: And the “maximal tolerated dose (MTD)” value [3]?
A: Its value is 40 mg/kg.
